Tested on: crypt cells of the colon of HFA mice
Test: DNA chip showing specific responses to human intestinal normal bacterial flora, colistin-treated HFA mice
Conditions: 500 μg/Ml in drinking water three weeks
[1] = colon crypt cells, then halted one week

From the text: The colon is collected and the gene expression of crypt cells obtained from the colon is compared with the control group (HFA mice).
In other words, the material or the food is orally administered to HFA mice, which are autopsied along with control HFA mice not having been administered. The crypt cells of the colon are collected to separate RNA. Next, the separated RNA is amplified and Cy3 fluorescence material is labelled on the genes of HFA mice and Cy5 fluorescence material is labelled on the genes of the administered group to react with the gene chip which is a product of the present invention to get the difference of expressions of the 90 genes.
RNA is collected and amplified from the crypt cells of the colon to manufacture a DNA chip, which is reacted with RNA of HFA mice being the control group. The degree of expressing genes and the change of composition of intestinal normal bacterial flora of the colon and the activity of the enzymes produced by the human intestinal bacterial flora such as glucuomidase, glucosidase, nitrate reductase and azoreductase are investigated and used as an index showing the disruption of the human intestinal normal bacterial flora.

Substance: colistin sulfate
- Disruption of the human intestinal normal bacterial flora, recovery after stop of administration (one week after stop): not recovered in one week after the administration of colistin is stopped
- Number of genes in total showing a difference by more than 1.5 times in comparison with the control group (then halted one week): 38 genes
- Number of the 90 genes with the same tendency of increase and decrease as observed when the flora is disturbed (then halted one week): 25 genes
- 1110037F02Rik gene expression HFA-Coli/HFA [1]: 13.33
- 1110037F02Rik gene expression, HFA-Coli [1]: 133.2
- 1110038M16Rik gene expression HFA-Coli/HFA [1]: 1.355
- 1110038M16Rik gene expression, HFA-Coli [1]: 195.8
- 1700012H17Rik gene expression HFA-Coli/HFA [1]: 0.969
- 1700012H17Rik gene expression, HFA-Coli [1]: 594.0
- 2610529I12Rik gene expression HFA-Coli/HFA [1]: 1.049
- 2610529I12Rik gene expression, HFA-Coli [1]: 1108
- 4732481h14Rik gene expression HFA-Coli/HFA [1]: 0.750
- 4732481h14Rik gene expression, HFA-Coli [1]: 209.2
- 4930455F23Rik gene expression HFA-Coli/HFA [1]: 0.851
- 4930455F23Rik gene expression, HFA-Coli [1]: 634.5
- 5031404N19 gene expression HFA-Coli/HFA [1]: 0.956
- 5031404N19 gene expression, HFA-Coli [1]: 444.2
- 5430437F03Rik gene expression HFA-Coli/HFA [1]: 1.826
- 5430437F03Rik gene expression, HFA-Coli [1]: 485.8
- 6330590F17Rik gene expression HFA-Coli/HFA [1]: 1.341
- 6330590F17Rik gene expression, HFA-Coli [1]: 84.50
- 9830148O20Rik gene expression HFA-Coli/HFA [1]: 1.400
- 9830148O20Rik gene expression, HFA-Coli [1]: 815.0
- Alas1 gene expression HFA-Coli/HFA [1]: 1.857
- Alas1 gene expression, HFA-Coli [1]: 577.0
- Aldh6a1 gene expression HFA-Coli/HFA [1]: 0.971
- Aldh6a1 gene expression, HFA-Coli [1]: 286.5
- Au043625 gene expression HFA-Coli/HFA [1]: 1.167
- Au043625 gene expression, HFA-Coli [1]: 336.5
- Bnip3l gene expression HFA-Coli/HFA [1]: 1.753
- Bnip3l gene expression, HFA-Coli [1]: 729.5
- C130039O16 gene expression HFA-Coli/HFA [1]: 1.160
- C130039O16 gene expression, HFA-Coli [1]: 680.0
- CPd gene expression HFA-Coli/HFA [1]: 0.848
- CPd gene expression, HFA-Coli [1]: 587.8
- Cacnb3 gene expression HFA-Coli/HFA [1]: 0.649
- Cacnb3 gene expression, HFA-Coli [1]: 661.2
- Cav gene expression HFA-Coli/HFA [1]: 1.029
- Cav gene expression, HFA-Coli [1]: 206.0
- Ccnd2 gene expression HFA-Coli/HFA [1]: 0.839
- Ccnd2 gene expression, HFA-Coli [1]: 315.5
- Cdc45l gene expression HFA-Coli/HFA [1]: 1.652
- Cdc45l gene expression, HFA-Coli [1]: 100.8
- Cited1 gene expression HFA-Coli/HFA [1]: 1.222
- Cited1 gene expression, HFA-Coli [1]: 289.0
- Ckap2 gene expression HFA-Coli/HFA [1]: 1.661
- Ckap2 gene expression, HFA-Coli [1]: 548.0
- Cldn8 gene expression HFA-Coli/HFA [1]: 1.195
- Cldn8 gene expression, HFA-Coli [1]: 406.5
- Col3a1 gene expression HFA-Coli/HFA [1]: 2.136
- Col3a1 gene expression, HFA-Coli [1]: 441.0
- Cotl11 gene expression HFA-Coli/HFA [1]: 1.883
- Cotl11 gene expression, HFA-Coli [1]: 1227
- Crem gene expression HFA-Coli/HFA [1]: 0.890
- Crem gene expression, HFA-Coli [1]: 355.8
- Crsp7 gene expression HFA-Coli/HFA [1]: 2.045
- Crsp7 gene expression, HFA-Coli [1]: 1218
- Cul4b gene expression HFA-Coli/HFA [1]: 1.715
- Cul4b gene expression, HFA-Coli [1]: 91.75
- D230019K24Rik gene expression HFA-Coli/HFA [1]: 2.598
- D230019K24Rik gene expression, HFA-Coli [1]: 142.2
- Daf1 gene expression HFA-Coli/HFA [1]: 2.085
- Daf1 gene expression, HFA-Coli [1]: 419.0
- Dap3 gene expression HFA-Coli/HFA [1]: 1.274
- Dap3 gene expression, HFA-Coli [1]: 634.5
- Dcamkl1 gene expression HFA-Coli/HFA [1]: 0.679
- Dcamkl1 gene expression, HFA-Coli [1]: 615.2
- Ddx1 gene expression HFA-Coli/HFA [1]: 1.094
- Ddx1 gene expression, HFA-Coli [1]: 370.0
- Eif2ak3 gene expression HFA-Coli/HFA [1]: 1.274
- Eif2ak3 gene expression, HFA-Coli [1]: 685.0
- Epc1 gene expression HFA-Coli/HFA [1]: 1.452
- Epc1 gene expression, HFA-Coli [1]: 228.8
- Fads3 gene expression HFA-Coli/HFA [1]: 1.422
- Fads3 gene expression, HFA-Coli [1]: 409.2
- Fn3k gene expression HFA-Coli/HFA [1]: 0.785
- Fn3k gene expression, HFA-Coli [1]: 415.5
- Gmnn gene expression HFA-Coli/HFA [1]: 0.997
- Gmnn gene expression, HFA-Coli [1]: 673.8
- Gstm2 gene expression HFA-Coli/HFA [1]: 0.944
- Gstm2 gene expression, HFA-Coli [1]: 164.8
- Guca1a gene expression HFA-Coli/HFA [1]: 1.553
- Guca1a gene expression, HFA-Coli [1]: 417.0
- Hdac5 gene expression HFA-Coli/HFA [1]: 0.949
- Hdac5 gene expression, HFA-Coli [1]: 473.8
- Hsd17b2 gene expression HFA-Coli/HFA [1]: 1.453
- Hsd17b2 gene expression, HFA-Coli [1]: 1737
- Igj gene expression HFA-Coli/HFA [1]: 0.888
- Igj gene expression, HFA-Coli [1]: 210.5
- Il16 gene expression HFA-Coli/HFA [1]: 1.470
- Il16 gene expression, HFA-Coli [1]: 568.0
- Il18 gene expression HFA-Coli/HFA [1]: 1.094
- Il18 gene expression, HFA-Coli [1]: 531.5
- Ipo4 gene expression HFA-Coli/HFA [1]: 2.566
- Ipo4 gene expression, HFA-Coli [1]: 140.5
- Keap1 gene expression HFA-Coli/HFA [1]: 0.687
- Keap1 gene expression, HFA-Coli [1]: 564.0
- Klf3 gene expression HFA-Coli/HFA [1]: 0.764
- Klf3 gene expression, HFA-Coli [1]: 195.8
- Lnx1 gene expression HFA-Coli/HFA [1]: 0.171
- Lnx1 gene expression, HFA-Coli [1]: 98.25
- Lrp10 gene expression HFA-Coli/HFA [1]: 2.132
- Lrp10 gene expression, HFA-Coli [1]: 1648
- Mcpt4 gene expression HFA-Coli/HFA [1]: 1.505
- Mcpt4 gene expression, HFA-Coli [1]: 181.8
- Mllt1 gene expression HFA-Coli/HFA [1]: 0.781
- Mllt1 gene expression, HFA-Coli [1]: 502.8
- Mpp1 gene expression HFA-Coli/HFA [1]: 0.874
- Mpp1 gene expression, HFA-Coli [1]: 638.0
- Mt-1 gene expression HFA-Coli/HFA [1]: 3.610
- Mt-1 gene expression, HFA-Coli [1]: 2033
- Mtmr7 gene expression HFA-Coli/HFA [1]: 2.084
- Mtmr7 gene expression, HFA-Coli [1]: 173.0
- Mut gene expression HFA-Coli/HFA [1]: 1.238
- Mut gene expression, HFA-Coli [1]: 999.5
- Ncoa6 gene expression HFA-Coli/HFA [1]: 3.070
- Ncoa6 gene expression, HFA-Coli [1]: 374.5
- Npm1 gene expression HFA-Coli/HFA [1]: 1.840
- Npm1 gene expression, HFA-Coli [1]: 350.0
- Parva gene expression HFA-Coli/HFA [1]: 1.330
- Parva gene expression, HFA-Coli [1]: 153.0
- Per1 gene expression HFA-Coli/HFA [1]: 1.227
- Per1 gene expression, HFA-Coli [1]: 803.5
- Plp gene expression HFA-Coli/HFA [1]: 1.232
- Plp gene expression, HFA-Coli [1]: 2108
- Prkrir gene expression HFA-Coli/HFA [1]: 0.644
- Prkrir gene expression, HFA-Coli [1]: 510.0
- Ptgs1 gene expression HFA-Coli/HFA [1]: 2.280
- Ptgs1 gene expression, HFA-Coli [1]: 2454
- Ptgs2 gene expression HFA-Coli/HFA [1]: 1.721
- Ptgs2 gene expression, HFA-Coli [1]: 423.8
- Purb gene expression HFA-Coli/HFA [1]: 2.438
- Purb gene expression, HFA-Coli [1]: 527.8
- Rab6ip1 gene expression HFA-Coli/HFA [1]: 2.725
- Rab6ip1 gene expression, HFA-Coli [1]: 203.0
- Rgs12 gene expression HFA-Coli/HFA [1]: 1.395
- Rgs12 gene expression, HFA-Coli [1]: 152.8
- Rhcg gene expression HFA-Coli/HFA [1]: 1.572
- Rhcg gene expression, HFA-Coli [1]: 286.5
- Rnf12 gene expression HFA-Coli/HFA [1]: 1.234
- Rnf12 gene expression, HFA-Coli [1]: 72.50
- Rpa1 gene expression HFA-Coli/HFA [1]: 1.626
- Rpa1 gene expression, HFA-Coli [1]: 353.8
- Rpl27 gene expression HFA-Coli/HFA [1]: 1.021
- Rpl27 gene expression, HFA-Coli [1]: 1768
- Rwl-pending gene expression HFA-Coli/HFA [1]: 1.623
- Rwl-pending gene expression, HFA-Coli [1]: 490.5
- Serping1 gene expression HFA-Coli/HFA [1]: 1.113
- Serping1 gene expression, HFA-Coli [1]: 153.0
- Sh3glb2 gene expression HFA-Coli/HFA [1]: 1.081
- Sh3glb2 gene expression, HFA-Coli [1]: 578.0
- Siat9 gene expression HFA-Coli/HFA [1]: 1.010
- Siat9 gene expression, HFA-Coli [1]: 1439
- Slc22a1l gene expression HFA-Coli/HFA [1]: 1.054
- Slc22a1l gene expression, HFA-Coli [1]: 1671
- Slc26a1 gene expression HFA-Coli/HFA [1]: 1.302
- Slc26a1 gene expression, HFA-Coli [1]: 203.5
- Srpk2 gene expression HFA-Coli/HFA [1]: 0.480
- Srpk2 gene expression, HFA-Coli [1]: 312.2
- Tacc2 gene expression HFA-Coli/HFA [1]: 2.279
- Tacc2 gene expression, HFA-Coli [1]: 179.5
- Tccr gene expression HFA-Coli/HFA [1]: 0.821
- Tccr gene expression, HFA-Coli [1]: 682.0
- Tcl1 gene expression HFA-Coli/HFA [1]: 1.688
- Tcl1 gene expression, HFA-Coli [1]: 290.2
- Tcp11 gene expression HFA-Coli/HFA [1]: 1.222
- Tcp11 gene expression, HFA-Coli [1]: 536.5
- Thsd1 gene expression HFA-Coli/HFA [1]: 1.373
- Thsd1 gene expression, HFA-Coli [1]: 477.8
- Tiam2 gene expression HFA-Coli/HFA [1]: 7.565
- Tiam2 gene expression, HFA-Coli [1]: 160.8
- Tnfsf13b gene expression HFA-Coli/HFA [1]: 2.153
- Tnfsf13b gene expression, HFA-Coli [1]: 256.8
- Tuba4 gene expression HFA-Coli/HFA [1]: 1.623
- Tuba4 gene expression, HFA-Coli [1]: 799.2
- Ugcg gene expression HFA-Coli/HFA [1]: 0.625
- Ugcg gene expression, HFA-Coli [1]: 1158
- Usp15 gene expression HFA-Coli/HFA [1]: 1.355
- Usp15 gene expression, HFA-Coli [1]: 85.00
- Ybx2 gene expression HFA-Coli/HFA [1]: 1.478
- Ybx2 gene expression, HFA-Coli [1]: 164.8
- Zdhhc3 gene expression HFA-Coli/HFA [1]: 1.710
- Zdhhc3 gene expression, HFA-Coli [1]: 357.8
